This assay relates to BDF1 mice, B16 melanoma ip, median survival T/C. As to the kind of experiment: NCI In Vivo Anticancer Drug Screen. Data for tumor model B16 Melanoma (intraperitoneal) in B6D2F1 (BDF1) mice. Conditions: endpoint: median survival time, higher = longer survival. Put shortly: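 Transplantable tumor model; survival or tumor size measured; reported as T/C, treated over vehicle control.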

Where [1] appears, read: dose: 6.25 mg/kg/injection, schedule: Q01DX009 (ip), vehicle: water.
Where [2] appears, read: dose: 12.5 mg/kg/injection, schedule: Q01DX009 (ip), vehicle: water.
[3] abbreviates: dose: 25.0 mg/kg/injection, schedule: Q01DX009 (ip), vehicle: water.
The mark [4] stands for this setting: dose: 25.0 mg/kg/injection, schedule: Q01DX009 (ip), vehicle: saline with Tween-80.
The mark [5] stands for this setting: dose: 50.0 mg/kg/injection, schedule: Q01DX009 (ip), vehicle: saline with Tween-80.
Setting [6] is: dose: 50.0 mg/kg/injection, schedule: Q04DX003 (ip), vehicle: saline with Tween-80.
[7] abbreviates: dose: 100.0 mg/kg/injection, schedule: Q01DX009 (ip), vehicle: saline with Tween-80.
[8] abbreviates: dose: 100.0 mg/kg/injection, schedule: Q04DX003 (ip), vehicle: saline with Tween-80.
Where [9] appears, read: dose: 200.0 mg/kg/injection, schedule: Q01DX009 (ip), vehicle: saline with Tween-80.
Where [10] appears, read: dose: 400.0 mg/kg/injection, schedule: Q01DX009 (ip), vehicle: saline with Tween-80.
Setting [11] is: dose: 25.0 mg/kg/injection, schedule: Q01DX009 (ip), vehicle: saline.
Where [12] appears, read: dose: 50.0 mg/kg/injection, schedule: Q01DX009 (ip), vehicle: saline.
Where [13] appears, read: dose: 12.5 mg/kg/injection, schedule: Q01DX009 (ip), vehicle: saline with Tween-80.

Several values for one entry are separate records, joined by “and”; a condition that tells them apart may be missing. Equal values may be shown once. Toxic doses and inconclusive results are not listed. Numbered stars: 1 amine (or outer) side, 2 acyl side, 3 side chain; on linkers, the order of the positions; unused ones are H or OH. Bridge positions count the residues as written; N and C are the ends. Square brackets hold non-standard residues; d marks the D form. Peptide text beside a SMILES is read from it. I, II: the chains in the order shown. Actinocin(9to1) = Cc1c2oc3c(C)ccc(C(=O)[*:1])c3nc-2c(C(=O)[*:2])c(N)c1=O; X2 = O=C(C1CC(Cl)CN1[*:1])[*:2]; NMeV = CN[CH](C(=O)O)C(C)C; Sar = CNCC(=O)O

For the compound `CC(=O)Nc1cc(N(CCOS(C)(=O)=O)CCOS(C)(=O)=O)ccc1N=O`, the T/C (dose: 75.0 micrograms/kg/injection, schedule: Q04DX003 (ip), vehicle: saline) is 111 % of control; the T/C (dose: 100.0 micrograms/kg/injection, schedule: Q01DX009 (ip), vehicle: saline) is 121 % of control; the T/C (dose: 150.0 micrograms/kg/injection, schedule: Q04DX003 (ip), vehicle: saline) was 110 % of control; the T/C (dose: 300.0 micrograms/kg/injection, schedule: Q04DX003 (ip), vehicle: saline) is 109 % of control.
Consider `CC(C)=CCC(O)C1=CC(=O)c2c(O)ccc(O)c2C1=O` (centres undefined), for which the T/C is 107 % of control (dose: 1.25 mg/kg/injection, schedule: Q01DX009 (ip), vehicle: Klucel (hydroxypropylcellulose) (HPC)); 102 % of control (dose: 2.5 mg/kg/injection, schedule: Q01DX009 (ip), vehicle: Klucel (hydroxypropylcellulose) (HPC)); 92 % of control (dose: 5.0 mg/kg/injection, schedule: Q01DX009 (ip), vehicle: Klucel (hydroxypropylcellulose) (HPC)); 87 % of control (dose: 10.0 mg/kg/injection, schedule: Q01DX009 (ip), vehicle: Klucel (hydroxypropylcellulose) (HPC)).
Turning to `COc1cc2c(cc1OC)/C(=N/N)CCC2`, the T/C under setting [1] is 99 % of control; the T/C under setting [2] is 92 % of control; the T/C under setting [3] was 93 % of control; the T/C (dose: 50.0 mg/kg/injection, schedule: Q01DX009 (ip), vehicle: water) was 97 % of control.
For `CN1CCc2cc3c(cc2C(=O)Cc2ccc4c(c2C1)OCO4)OCO3`, the T/C under setting [4] was 115 % of control; the T/C (dose: 25.0 mg/kg/injection, schedule: Q04DX003 (ip), vehicle: saline with Tween-80) was 117 % of control; the T/C under setting [5] is 112 % of control; the T/C under setting [6] was 114 % of control; the T/C under setting [7] was 105 % of control; the T/C under setting [8] is 94 % of control.
Regarding `O=C(O)c1ccccc1C(=O)Nc1ccc([N+](=O)[O-])cc1Cl`, the T/C was 93 % of control (dose: 50.0 mg/kg/injection, schedule: Q01DX009 (ip), vehicle: Klucel (hydroxypropylcellulose) (HPC)); 100 % of control (dose: 100.0 mg/kg/injection, schedule: Q01DX009 (ip), vehicle: Klucel (hydroxypropylcellulose) (HPC)); 96 % of control (dose: 200.0 mg/kg/injection, schedule: Q01DX009 (ip), vehicle: Klucel (hydroxypropylcellulose) (HPC)).
Turning to `O=[N+]([O-])c1cc([N+](=O)[O-])c(Br)cc1Cl`, the T/C by setting is: (dose: 2.5 mg/kg/injection, schedule: Q01DX009 (ip), vehicle: saline with Tween-80) 92 % of control; (dose: 5.0 mg/kg/injection, schedule: Q01DX009 (ip), vehicle: saline with Tween-80) 98 % of control; (dose: 10.0 mg/kg/injection, schedule: Q01DX009 (ip), vehicle: saline with Tween-80) 87 % of control; (dose: 20.0 mg/kg/injection, schedule: Q01DX009 (ip), vehicle: Klucel (hydroxypropylcellulose) (HPC)) 94 % of control.
In the case of `CCc1ccccc1NC(=O)Nc1ccc(Cl)c(Cl)c1`, the T/C by setting is: (dose: 75.0 mg/kg/injection, schedule: Q01DX009 (ip), vehicle: Klucel (hydroxypropylcellulose) (HPC)) 102 % of control; (dose: 150.0 mg/kg/injection, schedule: Q01DX009 (ip), vehicle: Klucel (hydroxypropylcellulose) (HPC)) 97 % of control; (dose: 300.0 mg/kg/injection, schedule: Q01DX009 (ip), vehicle: Klucel (hydroxypropylcellulose) (HPC)) 89 % of control.
In the case of `Cc1ccc(S(=O)(=O)N2CCC(C(=O)O)(c3ccccc3)CC2)cc1`, the T/C was 113 % of control under setting [5], 99 % of control under setting [7] and 103 % of control under setting [9].
As for `Cc1cc(C)c(NC(=O)N(CCCl)N=O)cc1C`, the T/C was 197 % of control (dose: 23.0 mg/kg/injection, schedule: Q01DX009 (ip), vehicle: saline) and 229 % of control (dose: 45.0 mg/kg/injection, schedule: Q01DX009 (ip), vehicle: saline).
As to `CC(C)=CCC/C(C)=C\CCl`, the T/C was 105 % of control under setting [4] and 101 % of control under setting [5].
As to `COc1ccccc1C(=O)c1ccccc1Cc1cccc2ccccc12`, the T/C runs as follows: under setting [5], 98 % of control; under setting [7], 97 % of control; under setting [9], 92 % of control; under setting [10], 93 % of control.
Take `CN(CCN(C)Cc1ccccc1)Cc1ccccc1`: the T/C is 100 % of control under setting [11] and 92 % of control under setting [12].
With `Cc1c2oc3c(C)ccc(C(=O)NC4C(=O)NC(C(C)C)C(=O)N5CC(Cl)CC5C(=O)N(C)CC(=O)N(C)C(C(C)C)C(=O)OC4C)c3nc-2c(C(=O)NC2C(=O)NC(C(C)C)C(=O)N3CC(Cl)CC3C(=O)N(C)CC(=O)N(C)C(C(C)C)C(=O)OC2C)c(N)c1=O` (centres undefined) (I: TV[X2][Sar][NMeV] / II: TV[X2][Sar][NMeV]; ester I:1-I:C, II:1-II:C; linker I:N-II:N via Actinocin(9to1); configuration not given here), the T/C by setting is: (dose: 1080.0 micrograms/kg/injection, schedule: Q04DX003 (ip), vehicle: saline + alcohol) 159 % of control; (dose: 1800.0 micrograms/kg/injection, schedule: Q04DX003 (ip), vehicle: saline + alcohol) 160 % of control.
Take `NC(=S)N/N=C/c1cc(-c2cccc(N)c2)ccn1`: the T/C is, setting by setting: (dose: 6.25 mg/kg/injection, schedule: Q01DX009 (ip), vehicle: saline with Tween-80) 104 % of control and 123 % of control and 124 % of control; under setting [13], 122 % of control; (dose: 12.5 mg/kg/injection, schedule: Q01DX009 (ip), vehicle: saline) 166 % of control; under setting [11], 156 % of control; (dose: 37.5 mg/kg/injection, schedule: Q04DX003 (ip), vehicle: saline) 166 % of control; (dose: 75.0 mg/kg/injection, schedule: Q01DX009 (ip), vehicle: saline with Tween-80) 124 % of control. Also, the T/C by setting is: (dose: 75.0 mg/kg/injection, schedule: Q04DX003 (ip), vehicle: saline) 156 % of control; (dose: 150.0 mg/kg/injection, schedule: Q04DX003 (ip), vehicle: saline) 150 % of control.
With `COc1cc(C)c2c(=O)c3c(oc2c1)C(=O)c1c(O)c(OC)cc(O)c1C3=O`, the T/C is, setting by setting: under setting [4], 105 % of control; under setting [5], 101 % of control; under setting [7], 96 % of control; under setting [9], 100 % of control.
As to `C1CC[N-]CC1.[Cl][Pt+2][Cl].[NH-]C1CC1`, the T/C reads like this: (dose: 3.12 mg/kg/injection, schedule: Q01DX009 (ip), vehicle: water) 105 % of control; (dose: 3.13 mg/kg/injection, schedule: Q01DX009 (ip), vehicle: water) 151 % of control; under setting [1], 152 % of control; under setting [2], 119 % of control.
In the case of `CC(C)C1CC2CCC3C(C)(C(=O)O)CCCC3(C)C2CC1CO` (centres undefined), the T/C is 99 % of control under setting [5]; 100 % of control under setting [6]; 96 % of control under setting [7]; 97 % of control under setting [8]; 94 % of control under setting [9]; 90 % of control (dose: 200.0 mg/kg/injection, schedule: Q04DX003 (ip), vehicle: saline with Tween-80).
With `C=CC(=O)N1CN(C(=O)C=C)CN(C(=O)C=C)C1`, the T/C was 110 % of control (dose: 0.78 mg/kg/injection, schedule: Q01DX009 (ip), vehicle: saline with Tween-80); 114 % of control (dose: 1.56 mg/kg/injection, schedule: Q01DX009 (ip), vehicle: saline with Tween-80); 116 % of control (dose: 3.12 mg/kg/injection, schedule: Q01DX009 (ip), vehicle: saline with Tween-80).
For `O=c1cc[nH]c(=O)o1`, the T/C reads like this: under setting [1], 104 % of control; under setting [2], 111 % of control; under setting [3], 108 % of control.
As to `CC(N)(Cc1ccc(O)c(O)c1)C(=O)O` (centres undefined), the T/C is 115 % of control under setting [12]; 100 % of control (dose: 100.0 mg/kg/injection, schedule: Q01DX009 (ip), vehicle: saline); 107 % of control (dose: 200.0 mg/kg/injection, schedule: Q01DX009 (ip), vehicle: saline); 110 % of control (dose: 400.0 mg/kg/injection, schedule: Q01DX009 (ip), vehicle: saline).
Consider `O=C(Nc1nncs1)c1cccs1`, for which the T/C was 101 % of control under setting [13]; 109 % of control under setting [4]; 121 % of control under setting [5]; 109 % of control under setting [7]; 106 % of control under setting [9].
As for `OC(Cc1nc2ccccc2s1)(C(F)(F)F)C(F)(F)F`, the T/C was 111 % of control under setting [7]; 89 % of control under setting [8]; 108 % of control under setting [10]; 102 % of control (dose: 400.0 mg/kg/injection, schedule: Q04DX003 (ip), vehicle: saline with Tween-80).

Values taken from PubChem BioAssay AID192 (DTP/NCI, 2004).
